The values that follow come from patent US10435399B2, “HDAC6 inhibitory heterocyclic compound” (TAKEDA PHARMACEUTICAL COMPANY LIMITED, priority 2017, dated 2019).

Test [1] deals with T1, HDAC6 enzyme (Homo sapiens, UniProt Q9UBN7).
T1 construct: transducing full length HDAC6 gene into Sf-9 insect cells; GST; purchased SignalChem; host or cells: Sf-9 insect cells
T1 sequence (Q9UBN7 1-1215): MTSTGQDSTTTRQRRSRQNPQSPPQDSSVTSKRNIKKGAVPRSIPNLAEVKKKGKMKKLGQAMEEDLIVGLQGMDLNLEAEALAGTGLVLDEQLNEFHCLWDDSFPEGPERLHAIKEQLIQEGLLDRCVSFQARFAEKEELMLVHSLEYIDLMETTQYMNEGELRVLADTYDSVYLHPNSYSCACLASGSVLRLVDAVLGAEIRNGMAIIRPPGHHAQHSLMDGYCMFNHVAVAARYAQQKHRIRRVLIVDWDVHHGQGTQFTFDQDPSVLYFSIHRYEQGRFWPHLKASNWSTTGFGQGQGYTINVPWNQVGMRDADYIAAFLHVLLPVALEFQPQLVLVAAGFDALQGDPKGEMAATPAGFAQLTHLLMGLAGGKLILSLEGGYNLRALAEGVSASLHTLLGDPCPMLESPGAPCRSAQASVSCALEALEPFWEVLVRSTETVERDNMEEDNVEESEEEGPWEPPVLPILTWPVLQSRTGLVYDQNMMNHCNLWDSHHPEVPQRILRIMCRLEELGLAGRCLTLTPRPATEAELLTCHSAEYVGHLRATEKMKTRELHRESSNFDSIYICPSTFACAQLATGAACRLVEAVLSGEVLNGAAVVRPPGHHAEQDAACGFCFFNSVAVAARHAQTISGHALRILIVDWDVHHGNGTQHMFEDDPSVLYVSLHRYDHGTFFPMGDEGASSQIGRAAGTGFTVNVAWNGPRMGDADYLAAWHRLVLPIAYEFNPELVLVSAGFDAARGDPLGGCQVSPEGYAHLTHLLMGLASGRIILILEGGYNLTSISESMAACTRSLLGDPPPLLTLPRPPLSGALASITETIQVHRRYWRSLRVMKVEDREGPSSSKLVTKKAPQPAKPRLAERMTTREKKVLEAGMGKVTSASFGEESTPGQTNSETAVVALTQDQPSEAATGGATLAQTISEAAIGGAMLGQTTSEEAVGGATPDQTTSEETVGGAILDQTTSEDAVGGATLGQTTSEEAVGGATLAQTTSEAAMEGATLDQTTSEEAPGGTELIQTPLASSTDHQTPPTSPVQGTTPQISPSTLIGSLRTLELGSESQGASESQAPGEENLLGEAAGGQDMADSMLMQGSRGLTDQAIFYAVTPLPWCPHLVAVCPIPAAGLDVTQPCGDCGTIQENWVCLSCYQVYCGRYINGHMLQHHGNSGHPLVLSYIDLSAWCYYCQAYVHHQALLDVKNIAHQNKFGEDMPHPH
As to the kind of experiment: HDAC6 enzyme inhibitory activity (HDAC-Glo I/II Assay kit). Format: biochemical. The settings on record: 10 μM; wells without enzyme = 100% inhibition. In outline: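 Inhibition is calculated as relative activity, taking luminescence in enzyme-free wells as complete inhibition. The enzyme, full-length and GST-purified after Sf-9 expression, was exposed to compound for 60 min at room temperature before a 20 min HDAC-Glo reaction.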

Test [2] has as its system acetylated tubulin in brain (hippocampus). As to the kind of experiment: Increase in acetylated tubulin in brain (hippocampus ELISA). Format: in vivo, C57BL/6J mouse. The settings on record: mouse hippocampus, oral 10 mg/kg, 4 h after administration, vs vehicle. As to the method:
Increase in Acetylated Tubulin in Brain
A drug was suspended in 0.5% methyl cellulose to prepare a suspension for administration, having a concentration shown in Table 3. The suspension was orally administered into 8 to […] male C57BL/6J mouse, and after the passage of the time shown in Table 3, the brain was taken out, and hippocampus was obtained. The hippocampus was homogenized under RIPA extract (Wako) to which protease inhibitor (Thermo) and phosphatase inhibitor (Thermo) were added, and centrifuged in 15,000 g for 15 min to prepare a protein extract. The acetylated tubulin and total tubulin in the extract were detected by the following ELISA method. Tubulin antibody (Sigma) was immobilized on 96-well plate (Microlite2+, Thermo), and the plate was stored at 4° C. […] The plate was washed, HRP substrate was added thereto, and the luminescence was measured using a plate reader. The acetylated tubulin and total tubulin were quantified from logistics curve based on dilution series using the mouse hippocampus tissue extract, and the acetylated tubulin relative to total tubulin was calculated, and evaluated as an relative tubulin acetylation level. […] After F test for vehicle group and drug group, the significant difference between the two groups was analyzed by Student t-test or Welch test (indicated as * p<0.05, ** p<0.01). […]
For orientation: ELISA stands for enzyme-linked immunosorbent assay.

Turning to `O=C1c2cc(-c3nnc(C(F)F)o3)cnc2CN1[C@@H]1CCCC[C@H]1NC(=O)C(F)(F)C(F)(F)F` [Example 489, N-((1R,2R)-2-(3-(5-(difluoromethyl)-1,3,4-oxadiazol-2-yl)-5-oxo-5,7-dihydro-6H-pyrrolo[3,4-b]pyridin-6-yl)cyclohexyl)-2,2,3,3,3-pentafluoropropanamide], the “HDAC6 inhibitory rate (%) (10 μM)” value in test [1] is reported as 99%. Besides, the “relative tubulin acetylation level (acetylated tubulin relative to total tubulin)” value in test [2] is listed as “increase in significant tubulin acetylation level was observed”.
